Experiments:
[1] = Example 4-C body weight change, A375 xenograft study; type: in vivo, female nude mice (nu/nu); settings: 20 mpk, qd × 5 × 2, ip
Method in brief: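 Cells in 50% Matrigel were implanted subcutaneously in the flank, and mice (10/group) were randomized at 100-150 mm3. Compounds in 5% DMSO/D5W were dosed IP QD×5/wk ×2 cycles, IP once, IP weekly ×3 wk, or IV weekly ×3 wk. Body weight and tumour volume were measured twice weekly; TGI = (1−ΔT/ΔC)×100.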

C3A = test: TH2870 sensitivity in liver cancer cells; type: cell-based, human; settings: AKR1C3 expression ++++
in vivo = settings: mouse, ip, 20 mg/kg
Method: The pharmacokinetics of TH2870 were determined in Mouse/Nu-Foxn 1^nu NU/NU mice with A549 (non small cell lung), A375 (melanoma) and 786-O (renal cell) human tumor xenograft models following a single intraperitoneal dose of 20 mg/kg.

MDA-Pca-2b = test: TH2870 sensitivity in prostate cancer cell lines; type: cell-based; settings: Homo sapiens
LIXC-004 = test: TH2870 sensitivity in liver cancer cells; type: cell-based, human; settings: AKR1C3 expression +++
[2] = Example 4-D body weight change and lethal toxicity, A549 xenograft study; type: in vivo, female nude mice (nu/nu); settings: for Lethal Tox: 10 animals per group
Method: Cells were mixed with Matrigel (50% with exception for 30% in the H460) and 0.2 ml per mouse were subcutaneously implanted to the flank area of the animals. When tumor size reached 100-150 250 mm3, mice were randomized into experimental or vehicle groups with 10 mice/group and treatment was started (Day 1). The tested compounds were formulated in 5% DMSO in D5W. The regimens employed in the examples include IP, QD×5/wk (5 days on, 2 days off) as one cycle, for a total of 2 cycles; IP, once; IP, weekly for total 3 weeks; and IV, weekly for 3 weeks. Tumor growth and body weight were measured twice a week. Tumor volume was calculated as (length×width2)/2. Drug efficacy was assessed as Tumor Growth Inhibition (TGI) and Tumor Growth Delay (TGD). TGI was defined as (1−ΔT/ΔC)×100, where ΔT/ΔC presented the ratio of the change in mean (or median, if variation within the group was relatively large) tumor volume of the treated group and of the control group. TGD was calculated as the extra days for the treated tumor to reach 500 mm3 or 1000 mm3 as compared to the control group. Animals were culled when individual tumor size reached over 2000 mm3 or mean tumor volume exceeded 1000 mm3 in the group. Data are expressed as the mean±SEM. One-way analysis of variance with Dunnett post comparison test (GraphPad Prism 4) or two-tailed student's t-test were used for analysis. A P level <0.05 was considered statistically significant.
The compounds were tested in another A549 model. The compounds were dosed as follows. Daily IP dosing: 5 doses then 2 days off then 5 more doses starting at 100 mm^3 tumors on day 1 (10 animals per group average tumor volume). The antitumor effects and the safety of administration are graphically illustrated below.

AKR1C3 = target: T1, AKR1C3 (Homo sapiens, UniProt P42330); test: Activation by the aldoketo reductase AKR1C3 (% remaining, LC/MS/MS); type: biochemical; settings: for % Remaining: 5 μM, 25 μg/mL AKR1C3, 2 mM NADPH, 37° C.
T1 sequence (P42330 1-323): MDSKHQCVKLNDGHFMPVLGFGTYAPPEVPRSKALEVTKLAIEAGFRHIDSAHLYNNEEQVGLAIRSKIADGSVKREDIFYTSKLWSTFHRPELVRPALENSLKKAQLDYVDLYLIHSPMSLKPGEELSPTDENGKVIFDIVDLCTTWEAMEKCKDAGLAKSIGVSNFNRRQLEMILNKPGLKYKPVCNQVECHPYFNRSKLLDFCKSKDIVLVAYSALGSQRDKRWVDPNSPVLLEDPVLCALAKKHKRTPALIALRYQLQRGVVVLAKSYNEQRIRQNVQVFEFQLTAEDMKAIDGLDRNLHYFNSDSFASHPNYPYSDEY
Method: Recombinant human AKR1C3 was diluted to 25 μg/mL in phosphate buffered saline (PBS), pH 7.4 (37° C.), containing 2 mM NADPH. TH2870 or progesterone (positive control) in 30% methanol/70% water was added to the reaction mixture at a final concentration of 5 μM and incubated at 37° C. for 120 minutes. At various times up to 120 min, 50 μL of the reaction mixture was taken and 200 μL acetonitrile containing propranolol as internal standard was added, vortex-mixed and centrifuged for 10 min. The resulting supernatant (5 μL) was injected into a LC/MS/MS for quantitation of % remaining TH2870 and progesterone. The compounds were tested in duplicate.

[3] = system: A375 melanoma human tumor xenograft; test: Example 4-C antitumor efficacy, ectopic A375 melanoma xenograft model; type: in vivo, female nude mice (nu/nu); settings: qd × 5 × 2, ip
LIXC-012 = test: TH2870 sensitivity in liver cancer cells; type: cell-based, human; settings: AKR1C3 expression ++++
LNCap = test: TH2870 sensitivity in prostate cancer cell lines; type: cell-based; settings: Homo sapiens
HuCCT1 = test: TH2870 sensitivity in liver cancer cells; type: cell-based, human
SNU-398 = test: TH2870 sensitivity in liver cancer cells; type: cell-based, human; settings: AKR1C3 expression /
SNU-387 = test: TH2870 sensitivity in liver cancer cells; type: cell-based, human; settings: AKR1C3 expression ++++
SNU-182 = test: TH2870 sensitivity in liver cancer cells; type: cell-based, human; settings: AKR1C3 expression /
[4] = Homo sapiens, read-out: RelIC50

CC(OP(=O)(N1CC1)N1CC1)c1ccc([N+](=O)[O-])c(Oc2cccc(C(=O)N(C)C)c2)c1 (stereo not shown) [Compound 2870]
Max. BW loss % [1]: 0%
Max Inhibition % (C3A): 98.1%
IC50 (C3A; [4]): 7.1 nM
Kp (in vivo; Nu-Foxn1nu NU/NU): 0.0079 to 0.326
Tmax (in vivo; Nu-Foxn1nu NU/NU): 5 min
AUC (in vivo; Nu-Foxn 1nu NU/NU, AUC): 1570 ng·h/mL
Cmax (in vivo; Nu-Foxn 1nu NU/NU, Cmax): 5010 ng/mL
half-life (in vivo; Nu-Foxn 1nu NU/NU, Half-Life): 11.3 min
IC50 (MDA-Pca-2b): > 300 nM
Max Inhibition % (LIXC-004): 83.6%
IC50 (LIXC-004; [4]): 31.3 nM
Max. BW loss % ([2]; 20 mg/kg IP QD × 5/wk × 2 wks): 0.3%
Lethal Tox ([2]; 20 mg/kg IP QD × 5/wk × 2 wks): 0
Max. BW loss % ([2]; 40 mg/kg IV 2/wk × 2 wks): 2.0%
Lethal Tox ([2]; 40 mg/kg IV 2/wk × 2 wks): 1
% Remaining (AKR1C3; 0 min): 100%
% Remaining (AKR1C3; 15 min): 0.232%
% Remaining (AKR1C3; 30 min): 0.0101%
% Remaining (AKR1C3; 60 min): 0.00%
% Remaining (AKR1C3; 90 min): 0.00%
% Remaining (AKR1C3; 120 min): 0.00%
disappearance in the presence of AKR1C3 (AKR1C3; in words): rapid disappearance
TGD 500 ([3]; 20 mpk): 24 days
TGD 1000 ([3]; 20 mpk): >18 days
inhibition in vivo at 20 mg/kg ([3]; Mus musculus, A-375, 20 mpk, read-out: TGI): 98%
Max Inhibition % (LIXC-012): 87.1%
IC50 (LNCap): 162 nM
Max Inhibition % (HuCCT1; AKR1C3 expression +): 66.7%
IC50 (HuCCT1; Homo sapiens, HuCCT-1, AKR1C3 expression +, read-out: RelIC50): 125 nM
Max Inhibition % (SNU-398): 15.3%
IC50 (SNU-398; [4]): > 1000 nM
Max Inhibition % (SNU-387): 102.8%
Max Inhibition % (SNU-182): 19.4%
IC50 (SNU-182; [4]): > 1000 nM

— patent publication US10766914B2, “DNA alkylating agents” (OBI PHARMA, INC., priority 2015, dated 2020)
